Key:
Botrytis cinerea = assay: effectiveness on Botrytis cinerea; format: in vivo; conditions: at 330 ppm; comparison compounds of WO 01/11965
Alternaria brassicae = assay: in vivo test on Alternaria brassicae (Leaf spot of crucifers); conditions: for effectiveness on Alternaria brassicae: at 330 ppm, comparison compounds of WO 01/11965
Description: in vivo test on Alternaria brassicae (Leaf spot of crucifers)
The active ingredient tested is prepared by potter homogenisation in a concentrated suspension type formulation at 100 g/l. This suspension is then diluted with water to obtain the desired active material concentration.
Radish plants (Pernot variety) in starter cups, sown on a 50/50 peat soil-pozzolana substrate and grown at 18-20° C., are treated at the cotyledon stage by spraying with the aqueous suspension described above.
Plants, used as controls, are treated with an aqueous solution not containing the active material.
After 24 hours, the plants are contaminated by spraying them with an aqueous suspension of Alternaria brassicae spores (40,000 spores per cm^3). The spores are collected from a 12 to 13 days-old culture.
The contaminated radish plants are incubated for 6-7 days at about 18° C., under a humid atmosphere.
Grading is carried out 6 to 7 days after the contamination, in comparison with the control plants.

Peronosporaparasitica = assay: efficacy against Peronospora parasitica; format: in vivo; conditions: at 330 ppm; comparison compound of WO 01/11965

| Structure (SMILES) | effectiveness on Botrytis cinerea (Botrytis cinerea) | protection (good (at least 50%) or total) (Alternaria brassicae; 330 ppm, radish plants sprayed 24 h before contamination, grading 6 to 7 days after contamination vs control plants) | effectiveness on Alternaria brassicae (Alternaria brassicae) | efficacy against Peronospora parasitica (Peronosporaparasitica) |
| --- | --- | --- | --- | --- |
| CCNC(=O)C(Cc1ncc(C(F)(F)F)cc1Cl)NC(=O)c1ccccc1Br (stereo not shown) [compound 310, N-{1-ethylcarbamoyl-2-[3-chloro-5-(trifluoromethyl)-2-pyridinyl]ethyl}-2-bromobenzamide] | zero effectiveness |  |  |  |
| Cn1cc(C(=O)NCCc2ccc(C(F)(F)F)nc2)c(C(F)(F)F)n1 [Compound A-1, N-[2-(6-trifluoromethyl-3-pyridinyl)ethyl]-1-methyl-3-(trifluoromethyl)-1H-pyrazole-4-carboxamide] |  | at least 50% |  |  |
| CNC(=O)C(Cc1ncc(C(F)(F)F)cc1Cl)NC(=O)c1ccccc1 (stereo not shown) [compound 314, N-{1-methylcarbamoyl-2-[3-chloro-5-(trifluoromethyl) -2-pyridinyl]ethyl}-benzamide] | zero effectiveness |  |  |  |
| CNC(=O)C(Cc1ncc(C(F)(F)F)cc1Cl)NC(=O)c1ccc(OC)cc1 (stereo not shown) [compound 315, N-{1-methylcarbamoyl-2-[3-chloro-5-(trifluoromethyl)-2-pyridinyl]ethyl}-4-methoxybenzamide] | zero effectiveness |  |  |  |
| CCNC(=O)C(Cc1ncc(C(F)(F)F)cc1Cl)NC(=O)c1cccc([N+](=O)[O-])c1 (stereo not shown) [compound 307, N-{1-ethylcarbamoyl-2-[3-chloro-5-(trifluoromethyl)-2-pyridinyl]ethyl}-3-nitrobenzamide] | zero effectiveness |  | poor effectiveness |  |
| CCNC(=O)C(Cc1ncc(C(F)(F)F)cc1Cl)NC(=O)c1ccc(Cl)cc1 (stereo not shown) [compound 306, N-{1-ethylcarbamoyl-2-[3-chloro-5-(trifluoromethyl) -2-pyridinyl]ethyl}-4-chlorobenzamide] | zero effectiveness |  |  |  |
| O=C(Cc1cccs1)NCc1ncc(C(F)(F)F)cc1Cl [compound 101, N-{[3-chloro-5-(trifluoromethyl)-2-pyridinyl]methyl}-5-thienylacetamide] | no efficacy |  | poor efficacy | no efficacy |
| CNC(=O)C(Cc1ncc(C(F)(F)F)cc1Cl)NC(=O)c1ccc(-c2ccccc2)cc1 (stereo not shown) [compound 316, N-{1-methylcarbamoyl-2-[3-chloro-5-(trifluoromethyl)-2-pyridinyl]-ethyl}-4-phenylbenzamide] | zero effectiveness |  | poor effectiveness |  |
| CCNC(=O)C(Cc1ncc(C(F)(F)F)cc1Cl)NC(=O)c1ccccc1 (stereo not shown) [compound 304, N-{1-ethylcarbamoyl-2-[3-chloro-5-(trifluoromethyl)-2-pyridinyl]-ethyl}-benzamide] | zero effectiveness |  |  |  |

Reference: patent publication US20080096932A1, “3-Pyridinylethylcarboxamide Derivatives as Fungicides” (priority 2004, published 2008)
